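Exposure lasted 48 hours, with cells grown in 96-well plates and compounds tested at five concentrations. Abbreviation: GI50, concentration required for 50% inhibition of growth.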 Activity calls are given as the source filed them. Cut-off read from the data, not from the text of the source: active = GI50 up to about 1.1 µM and inactive = higher.
How the values were obtained:
Assay in all cases: growth of human tumour cells (NCI), 48 h
A549 = system: A549
BT-549 = system: BT-549
DU-145 = system: DU-145
EKVX = system: EKVX
HL-60 = system: HL-60
Hs-578T = system: Hs-578T
KM12 = system: KM12
LOX IMVI = system: LOX IMVI
MCF7 = system: MCF7
MDA-MB-231 = system: MDA-MB-231
MOLT-4 = system: MOLT-4
NCI-H460 = system: NCI-H460
RXF 393 = system: RXF 393
SK-MEL-28 = system: SK-MEL-28
SK-MEL-5 = system: SK-MEL-5
SNB-19 = system: SNB-19
SR = system: SR
T47D = system: T47D
TK-10 = system: TK-10
U-251 = system: U-251

Measured: GI50

C[C@@H](c1ccccc1)N1CN(C(=O)OCc2ccccc2)C(CO)C1=O (stereo not given in full)
inactive: A549 > 100 µM | BT-549 > 100 µM | DU-145 > 100 µM | EKVX 71.1 µM | HL-60 > 100 µM | Hs-578T > 100 µM | KM12 > 100 µM | LOX IMVI > 100 µM | MCF7 47.2 µM | MDA-MB-231 87.3 µM | MOLT-4 > 100 µM | NCI-H460 > 100 µM | RXF 393 61.1 µM | SK-MEL-28 > 100 µM | SK-MEL-5 > 100 µM | SNB-19 > 100 µM | SR > 100 µM | T47D > 100 µM | TK-10 > 100 µM | U-251 > 100 µM

COc1ccccc1NC(=O)CC(=O)n1nc(C)c(/N=N/c2ccccc2Cl)c1C
inactive: A549 > 100 µM | BT-549 > 81.7 µM | DU-145 > 100 µM | EKVX > 90.4 µM | HL-60 > 95.5 µM | Hs-578T > 100 µM | KM12 > 100 µM | LOX IMVI > 100 µM | MCF7 > 100 µM | MDA-MB-231 > 100 µM | MOLT-4 80.2 µM | NCI-H460 > 100 µM | RXF 393 > 100 µM | SK-MEL-28 > 100 µM | SK-MEL-5 > 100 µM | SNB-19 > 100 µM | SR > 72.4 µM | T47D > 100 µM | TK-10 > 100 µM | U-251 27.8 µM

Nc1ccc(C(=O)N2CCC[C@H]2CO)c(N)c1
inactive: A549 > 100 µM | BT-549 > 100 µM | DU-145 > 100 µM | EKVX > 100 µM | HL-60 > 100 µM | Hs-578T > 100 µM | KM12 > 100 µM | LOX IMVI > 100 µM | MCF7 > 100 µM | MDA-MB-231 > 100 µM | MOLT-4 > 100 µM | NCI-H460 > 100 µM | RXF 393 > 100 µM | SK-MEL-28 > 100 µM | SK-MEL-5 > 100 µM | SNB-19 > 100 µM | SR > 100 µM | T47D > 100 µM | TK-10 > 100 µM | U-251 > 100 µM

O=C1C(N2CCN(c3ccccn3)CC2)=C(Cl)C(=O)c2ncccc21
active: HL-60 0.105 µM
inactive: A549 > 10 µM | BT-549 > 10 µM | DU-145 > 6.76 µM | EKVX > 10 µM | Hs-578T > 4.49 µM | KM12 > 4.33 µM | LOX IMVI 2.22 µM | MCF7 1.76 µM | MDA-MB-231 3.63 µM | MOLT-4 1.83 µM | NCI-H460 > 10 µM | RXF 393 1.98 µM | SK-MEL-28 2.89 µM | SK-MEL-5 1.79 µM | SNB-19 > 10 µM | SR 2.28 µM | T47D 2.06 µM | TK-10 3.24 µM | U-251 > 10 µM

COC(=O)CCC(C)[C@H]1CCC2C3C(C[C@H](OC(C)=O)[C@@]21C)[C@@]1(C)CCC2(C[C@H]1C[C@H]3OC(C)=O)OOC1(CCCCCCC1)OO2 (stereo not given in full)
inactive: A549 4.56 µM | BT-549 9.14 µM | DU-145 6.58 µM | EKVX 1.36 µM | HL-60 4.3 µM | Hs-578T 4.05 µM | KM12 4.88 µM | LOX IMVI 3.65 µM | MCF7 6.64 µM | MDA-MB-231 8.26 µM | MOLT-4 3.12 µM | NCI-H460 3.24 µM | RXF 393 > 100 µM | SK-MEL-28 > 100 µM | SK-MEL-5 6.5 µM | SNB-19 > 100 µM | SR 2.29 µM | T47D 2.02 µM | TK-10 6.53 µM | U-251 5.86 µM

CCCC(=O)NC1=C(Cl)C(=O)c2ccccc2C1=O
active: HL-60 0.145 µM
inactive: A549 4.39 µM | BT-549 5.43 µM | DU-145 8.32 µM | EKVX 3.72 µM | Hs-578T 5.25 µM | KM12 3.01 µM | LOX IMVI 2.51 µM | MCF7 2.39 µM | MDA-MB-231 3.94 µM | MOLT-4 2.56 µM | NCI-H460 3.64 µM | RXF 393 1.15 µM | SK-MEL-28 4.33 µM | SK-MEL-5 2.67 µM | SNB-19 6.89 µM | SR 1.83 µM | T47D 2.25 µM | TK-10 4.89 µM | U-251 3.78 µM

COc1cc2c(c3oc4c(O)cccc4c(=O)c13)CC(C(C)(O)CCl)O2 (stereo not given)
inactive: A549 2.54 µM | BT-549 3.85 µM | DU-145 2.31 µM | EKVX 5.52 µM | Hs-578T 2.03 µM | KM12 1.29 µM | MDA-MB-231 1.55 µM | NCI-H460 2.64 µM | SNB-19 4.85 µM | T47D 2.8 µM | TK-10 12.1 µM | U-251 1.98 µM
active: HL-60 0.115 µM | LOX IMVI < 0.01 µM | MCF7 0.0254 µM | MOLT-4 < 0.01 µM | RXF 393 0.834 µM | SK-MEL-28 0.968 µM | SK-MEL-5 0.279 µM | SR < 0.0338 µM
